The results in this text go back to publication PMC8982737, “Discovery of S-217622, a Noncovalent Oral SARS-CoV-2 3CL Protease Inhibitor Clinical Candidate for Treating COVID-19” (Journal of Medicinal Chemistry, 2022).

Structures are written as SMILES. Read-outs that look alike come from different tables or passages of the source. Where only a bound is given, the exact number is not on record here.

The target in data set [1] is SARS-CoV-2 3CL protease (Severe acute respiratory syndrome coronavirus 2, UniProt P0DTD1). The experiment in a line: biochemical. The note with it: for IC50: read-out: SARS-CoV-2 3CLpro IC50. The data set is classed as biochemical.
Data set [2] has as its system HCoV-229E. In words: microbe, parasite or virus in culture. Particulars: Human coronavirus 229E, MRC5, read-out: EC50 against HCoV-229E. The format is cell-based.
Data set [3] deals with HCoV-OC43. The experiment in a line: microbe, parasite or virus in culture. The data set is classed as cell-based. The note with it: Betacoronavirus 1, OC43, MRC5, read-out: EC90 against HCoV-OC43.
The test system of data set [4] is SARS-CoV-2. In words: microbe, parasite or virus in culture. The format is cell-based.
Data set [5] relates to VeroE6/TMPRSS2 cells. Particulars: African green monkey.
Data set [6] has as its system SARS-CoV. In words: microbe, parasite or virus in culture. The format is cell-based. The note with it: Severe acute respiratory syndrome coronavirus, VeroE6/TMPRSS2, read-out: EC50 against SARS-CoV.
For data set [7], the system named is MERS-CoV. In words: microbe, parasite or virus in culture. The data set is classed as cell-based. Particulars: Middle East respiratory syndrome-related coronavirus, VeroE6/TMPRSS2, read-out: EC50 against MERS-CoV.
For data set [8] the following is noted: male, Sprague-Dawley, rat, in vivo; for CL (total clearance): iv.
For data set [9] the following is noted: male, rat, microsomes, 0.5 h, 0.5 μM, pH 7.4.
The conditions of data set [10]: both, human, microsomes, 0.5 h, 0.5 μM, pH 7.4.

What is called IC50 is the concentration needed to halve the response being measured. In the case of `CNC(=O)Cn1c(=O)[nH]/c(=N\c2cc3sc(C)nc3cc2C)n(Cc2ccccc2)c1=O` [Compound 16], in data set [1], the IC50 came to 58000 nM.
As to `CNC(=O)Cn1c(=O)nc(Nc2cc3sc(C)nc3cc2C)n(Cc2ccc(F)cc2)c1=O` [Compound 19], in [1], the IC50 came to 16000 nM.
The EC90 is the concentration needed for an effect of 90%. In general, CC50 refers to the concentration giving 50% cytotoxicity. Turning to `CCC(CC)COC(=O)[C@H](C)N[P@](=O)(OC[C@H]1O[C@@](C#N)(c2ccc3c(N)ncnn23)[C@H](O)[C@@H]1O)Oc1ccccc1` [Remdesivir, reference compound], the EC50 in [2] is 41 nM; in data set [4] (Severe acute respiratory syndrome coronavirus 2, VeroE6/TMPRSS2, strain hCoV-19/Japan/QHN001/2020 (Alpha, B.1.1.7), mean, read-out: EC50 on cytopathic effects), 970 nM; in data set [4] (Severe acute respiratory syndrome coronavirus 2, VeroE6/TMPRSS2, strain hCoV-19/Japan/QHN002/2020 (Alpha, B.1.1.7), mean, read-out: EC50 on cytopathic effects), 990 nM; in data set [4] (Severe acute respiratory syndrome coronavirus 2, VeroE6/TMPRSS2, strain hCoV-19/Japan/QK002/2020 (Alpha, B.1.1.7), mean, read-out: EC50 on cytopathic effects), 870 nM; in data set [4] (Severe acute respiratory syndrome coronavirus 2, VeroE6/TMPRSS2, strain hCoV-19/Japan/TY7-501/2021 (Gamma, P.1), mean, read-out: EC50 on cytopathic effects) it was 2100 nM; in data set [4] (Severe acute respiratory syndrome coronavirus 2, VeroE6/TMPRSS2, strain hCoV-19/Japan/TY7-503/2021 (Gamma, P.1), mean, read-out: EC50 on cytopathic effects) it was 1000 nM. For the same molecule, the EC50 in [4] (Severe acute respiratory syndrome coronavirus 2, VeroE6/TMPRSS2, strain hCoV-19/Japan/TY8-612/2021 (Beta, B.1.351), mean, read-out: EC50 on cytopathic effects) came out at 1200 nM; in data set [4] (Severe acute respiratory syndrome coronavirus 2, VeroE6/TMPRSS2, strain hCoV-19/Japan/TY11-927-P1/2021 (Delta, B.1.617.2), mean, read-out: EC50 on cytopathic effects), 1600 nM; in data set [4] (Severe acute respiratory syndrome coronavirus 2, VeroE6/TMPRSS2, strain hCoV-19/Japan/TY38-873/2021 (Omicron, B.1.1.529), mean, read-out: EC50 on cytopathic effects) it was 1100 nM; in data set [4] (Severe acute respiratory syndrome coronavirus 2, VeroE6/TMPRSS2, read-out: EC50 on cytopathic effects), 1900 nM; in [6], 1300 nM; in [7], 1500 nM. In data set [3], the EC90 was determined as 24 nM. This molecule came in with a CC50 in data set [5] greater than 100000 nM.
In the case of `CNC(=O)Cn1c(=O)[nH]/c(=N\c2cc3cn(C)nc3cc2Cl)n(Cc2cc(F)c(F)c(F)c2)c1=O` [Compound 2, (4E)-2-{4-[(6-Chloro-2-methyl-2H-indazol-5-yl)imino]-2,6-dioxo-3-(3,4,5-trifluorobenzyl)-1,3,5-triazinan-1-yl)-N-methylacetamide], in data set [8], the “CL (total clearance)” value was found to be 4.9 mL/min/kg and the “Oral F (oral bioavailability)” value was determined as 29.6%. The EC50 in data set [4] (Severe acute respiratory syndrome coronavirus 2, VeroE6/TMPRSS2, molecular formula strings csv, read-out: VeroE6/TMPRSS2 EC50) came to 12500 nM. In addition, the “RLM, percentage remaining after 30 min” value in data set [9] stood at 94.3%. In addition, the IC50 in data set [1] worked out at 96 nM. Further, in data set [1] (relative to hit compound 1), the “improvement in enzymatic inhibitory activity” value is 90 fold. Moreover, in data set [10], the “HLM, percentage remaining after 30 min” value is on record as 94.8%.
For the molecule `CNC(=O)Cn1c(=O)[nH]/c(=N\c2ccc(OC)cc2)n(Cc2cc(F)c(F)c(F)c2)c1=O` [Compound 14], in data set [1], the IC50 was 2800 nM.
Turning to `CNC(=O)Cn1c(=O)[nH]/c(=N\c2cc3sc(C)nc3cc2C)n(Cc2ccccc2F)c1=O` [Compound 17], the IC50 in data set [1] was found to be 35000 nM.
The same measure, in the same setting: the value for `CNC(=O)Cn1c(=O)[nH]/c(=N\c2ccc(OC)cc2C)n(Cc2cc(F)c(F)c(F)c2)c1=O` [Compound 13] was 1900 nM.
For the molecule `CNC(=O)Cn1c(=O)[nH]/c(=N\c2ccc(OC(F)F)cc2C)n(Cc2cc(F)c(F)c(F)c2)c1=O` [Compound 1, (4E)-2-(4-{[4-(Difluoromethoxy)-2-methylphenyl]imino}-2,6-dioxo-3-(3,4,5-trifluorobenzyl)-1,3,5-triazinan-1-yl)-N-methylacetamide], in [8], the “CL (total clearance)” value came out at 7.3 mL/min/kg and the “Oral F (oral bioavailability)” value stood at 111%. Besides, in data set [1], the IC50 came out at 8600 nM.
For `CNC(=O)Cn1c(=O)nc(Nc2cc3sc(C)nc3cc2C)n(Cc2cc(F)c(F)c(F)c2)c1=O` [Compound 15], the IC50 in data set [1] came out at 3500 nM.
As to `CNC(=O)Cn1c(=O)nc(Nc2cc3sc(C)nc3cc2C)n(Cc2cccc(F)c2)c1=O` [Compound 18], in [1], the IC50 worked out at 29000 nM.
